Data set [1] has as its target T1, α7-subtype of nicotinic receptors (Rattus norvegicus, UniProt Q05941).
T1 construct: Cerebral cortices from male Wistar rats (150-250 g) are homogenised; from tissue; host or cells: rat cerebral cortex membrane homogenate
Kind of data set: In vitro inhibition of 3H-α-bungarotoxine binding in rat brain. The note with it: rat cerebral cortex homogenate, 3H-α-bungarotoxine 2 nM.

As a reminder, the melting point is the temperature of the solid-liquid transition. A word on the pIC50: it is the negative decadic logarithm of the IC50, by convention in mol/L. A lower pIC50 goes with a high IC50.

pIC50: −log10 of the molar value.

T1 sequence (Q05941 23-502): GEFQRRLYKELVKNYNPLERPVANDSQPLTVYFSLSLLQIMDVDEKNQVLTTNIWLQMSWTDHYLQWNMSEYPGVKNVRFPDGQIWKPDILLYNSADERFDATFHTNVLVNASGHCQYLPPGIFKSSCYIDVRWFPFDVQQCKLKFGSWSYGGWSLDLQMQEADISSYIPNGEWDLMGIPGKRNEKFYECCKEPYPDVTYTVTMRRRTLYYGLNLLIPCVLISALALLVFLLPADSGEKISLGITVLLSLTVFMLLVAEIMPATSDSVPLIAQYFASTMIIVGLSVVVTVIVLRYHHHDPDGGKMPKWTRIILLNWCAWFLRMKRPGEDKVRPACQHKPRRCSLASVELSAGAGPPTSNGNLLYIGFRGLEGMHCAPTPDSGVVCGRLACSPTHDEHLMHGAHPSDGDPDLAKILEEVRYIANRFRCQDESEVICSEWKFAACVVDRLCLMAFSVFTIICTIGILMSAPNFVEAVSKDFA

With `CN1C2CCCC1CN(C(=O)c1ccc(-c3ccc([N+](=O)[O-])cc3)o1)C2.Cl`, the melting point is 263 °C.
Molecule `CCNC(=O)Nc1ccc(-c2ccc(C(=O)N3CC4CCCC(C3)N4C)o2)cc1.O=C(O)/C=C/C(=O)O` registered a melting point of 154 to 161 °C.
`CN1C2CCCC1CN(C(=O)c1ccc(-c3ccc(N)cc3)o1)C2` [Compound B1] displayed a melting point of 147 to 149 °C. This molecule also had a pIC50 in data set [1] of 6.38.
As to `CC(=O)Nc1ccc(-c2ccc(C(=O)N3CC4CCCC(C3)N4C)o2)cc1.O=C(O)/C=C/C(=O)O`, the melting point was in the range of 197 to 229 °C.
On to `CN1C2CCCC1CN(C(=O)c1ccc(-c3ccc(NC(=O)c4ccccc4)cc3)o1)C2.O=C(O)/C=C/C(=O)O`, for which the melting point was in the range of 246 to 252 °C.

The record behind these values is US7855208B2, “3, 9-diazabicyclo(3.3.1)non-3-yl-aryl methanone derivatives as nicotinic acetylcholine receptor agonists” (NeuroSearch A/S, priority 2006, dated 2010).
